Experiments:
[1] = Determination of solubility in water (Tsol); format: physicochemical; conditions: minimum temperature for forming a kinetically stable (clear) 50% by weight solution in water; cooled 30° C./h to precipitation, reheated 1° C./h
Method: In each case, the solubility was calculated to refer to pure MGDA, without hydrate water.
The solubility of inventive mixtures and of comparison experiments was determined with an apparatus that allowed heating and cooling down liquid solutions. […] Then, the slurry of crystals of MGDA so obtained was again heated at a speed of 1° C./h until a clear solution was obtained. The slurry/solution was checked for solid particles by visible light scattering detection.
The above tests furnished the minimum temperature, Tsol, for forming a kinetically stable 50% by weight solution of the respective mixture of isomers. A higher temperature Tsol correlates with a lower solubility at ambient temperature.

[2] = Determination of stability against strong alkali (solid NaOH), visual inspection; conditions: for Appearance of test solutions after 96 h of storage: 25 g of 40% by weight aqueous solution, ambient temperature; for Solubility / appearance with increasing NaOH amounts (summary): 40% by weight aqueous solution, 0 to 2.5 g solid NaOH added, up to 96 hours

| Tsol [1] [°C] | Appearance of test solutions after 96 h of storage ([2]; NaOH added 0 g (0 wt. % vs. 40% solution)) | Appearance of test solutions after 96 h of storage ([2]; NaOH added 0.5 g (2 wt. % vs. 40% solution)) | Appearance of test solutions after 96 h of storage ([2]; NaOH added 1.0 g (4 wt. % vs. 40% solution)) | Appearance of test solutions after 96 h of storage ([2]; NaOH added 1.5 g (6 wt. % vs. 40% solution), * = after 48 hours, listed as Racemic MGDA) | Appearance of test solutions after 96 h of storage ([2]; NaOH added 2.0 g (8 wt. % vs. 40% solution), * = after 48 hours, listed as Racemic MGDA) | Appearance of test solutions after 96 h of storage ([2]; NaOH added 2.5 g (10 wt. % vs. 40% solution), ** = immediately after addition of NaOH, listed as Racemic MGDA) | Solubility / appearance with increasing NaOH amounts (summary) ([2]; listed as racemic MGDA) | Appearance of test solutions after 96 h of storage ([2]; NaOH added 1.5 g (6 wt. % vs. 40% solution), * = after 48 hours, listed as MGDA: 50% ee) | Appearance of test solutions after 96 h of storage ([2]; NaOH added 2.0 g (8 wt. % vs. 40% solution), * = after 48 hours, listed as MGDA: 50% ee) | Appearance of test solutions after 96 h of storage ([2]; NaOH added 2.5 g (10 wt. % vs. 40% solution), ** = immediately after addition of NaOH, listed as MGDA: 50% ee) | Solubility / appearance with increasing NaOH amounts (summary) ([2]; listed as mixture according to the present invention (50% ee)) | SMILES |
| --- | --- | --- | --- | --- | --- | --- | --- | --- | --- | --- | --- | --- |
| 103.8 | clear liquid | clear liquid | clear liquid | turbid* liquid | turbid* liquid | turbid, precipitate** | decreases with increasing NaOH amounts | – | – | – | – | CC(C(=O)O)N(CC(=O)O)CC(=O)O (stereo not drawn) [ee value zero, methyl glycine diacetic acid] |
| – | – | – | – | – | – | – | – | clear liquid | clear liquid | clear liquid | remains clear | CC(C(=O)O)N(CC(=O)O)CC(=O)O (stereo not drawn) [ee value 50.0, methyl glycine diacetic acid] |
